Results: PMC4573583 (ACS chemical biology, 2015)
Entries after “also recorded” stand apart in the source; their conditions may differ.

What was measured:
[1] = aqueous solubility; assay type: physicochemical; conditions: in words
[2] = test system: other members of the genus Bacillus; conditions: cited from earlier work
[3] = test system: Bacillus anthracis Sterne; conditions: microbroth dilution method, ref [6], [10]; cited from earlier work
[4] = test system: other representative members of the genus Bacillus; assay type: cell-based
[5] = test system: Bacillus subtilis 168; assay type: cell-based
[6] = test system: MRSA (S. aureus NRS384); assay: cell density after 12 h treatment, MRSA; assay type: cell-based, Staphylococcus aureus; conditions: 24 μM, duplicate, #P<0.01 vs DMSO-treated MRSA
[7] = test system: Escherichia coli DH5a; assay type: cell-based
[8] = test system: B. anthracis Sterne; assay type: cell-based, Bacillus anthracis; conditions: 24 μM, 12 h treatment, duplicate, *P<0.01 vs DMSO-treated
[9] = test system: B. anthracis Sterne; assay type: cell-based, Bacillus anthracis; conditions: 4 μM, 30 min, mid-exponential phase cells, 22 °C
[10] = test system: BamL; conditions: cited from earlier work

Compound: RCTCTT [Arg-Az5]
- aqueous solubility [1]: moderate solubility

Compound: plantazolicin [PZN]
- growth inhibitory activity [2]: weak growth inhibitory activity
- susceptibility to purified PZN [3]: the only organism susceptible to the action of purified PZN to date has been Bacillus anthracis
- activity against other Bacillus (microbroth dilution) [4]: > 48 µM
- minimum inhibitory concentration (MIC) [5]: >48 µM
- antibiotic activity (cell density, 595 nm) [6]: not PZN displays antibiotic activity against MRSA
- minimum inhibitory concentration (MIC) [7]: >48 µM
- bactericidal effect (cell density, 595 nm) [8]: bactericidal
- cell lysis [9]: induces major cell lysis above the MIC; also recorded: shows cell lysis

Compound: NC(=O)[C@@H](N)CCCN=C(N)N [Arg amide]
- acceptance as substrate [10]: poorer substrate that is turned over by BamL but only under single-turnover conditions; also recorded: only so under near-single turnover conditions

Compound: N=C(N)NCCC[C@H](N)C(=O)O [Arg]
- acceptance as substrate [10]: not accepted as a substrate
